According to patent publication US7598245B2 (Vertex Pharmaceuticals Incorporated, priority 2003, dated 2009):
Read-outs that look alike come from different tables or passages of the source.

Key:
CDK-2/Cyclin A = biological target: T1, CDK-2/Cyclin A (Homo sapiens, UniProt P24941); assay: Inhibition of CDK-2, coupled enzyme assay; type: biochemical; conditions: 100 μM ATP, 30° C.
T1 construct: 25 nM CDK-2/Cyclin A
Procedure: Compounds are screened for their ability to inhibit CDK-2/Cyclin A using a standard coupled enzyme assay [Fox et al. Protein Sci. 1998, 7, 2249]. Reactions were carried out in 100 mM HEPES (pH 7.5), 10 mM MgCl2, 25 mM NaCl, 1 mM DTT and 1.5% DMSO. Final substrate concentrations in the assay are 100 μM ATP (Sigma chemicals) and 100 μM peptide (American Peptide, Sunnyvale, Calif.). Assays are carried out at 30° C. and 25 nM CDK-2/Cyclin A. Final concentrations of the components of the coupled enzyme system are 2.5 mM phosphoenolpyruvate, 350 μM NADH, 30 μg/ml pyruvate kinase and 10 μg/ml lactate dehydrogenase.
An assay stock buffer solution is prepared containing all of the reagents listed above, with the exception of CDK-2/Cyclin A, DTT and the test compound of interest. 56 μl of the test reaction is placed in a 384 well plate followed by addition of 1 μl of 2 mM DMSO stock containing the test compound (final compound concentration 30 μM). The plate is preincubated for ˜10 minutes at 30° C. and the reaction initiated by addition of 10 μl of enzyme (final concentration 25 nM). Rates of reaction are obtained using a BioRad Ultramark plate reader (Hercules, Calif.) over a 5 minute read time at 30° C. Ki values are determined according to standard methods.

FLT-3 = biological target: T2, FLT-3 (Homo sapiens, UniProt P36888); assay: Inhibition of FLT-3, radiometric filter-binding assay; type: biochemical; conditions: 90 μM ATP, pE4Y substrate
T2 construct: 0.02% BSA and 3 nM FLT-3
T2 sequence (P36888 27-993): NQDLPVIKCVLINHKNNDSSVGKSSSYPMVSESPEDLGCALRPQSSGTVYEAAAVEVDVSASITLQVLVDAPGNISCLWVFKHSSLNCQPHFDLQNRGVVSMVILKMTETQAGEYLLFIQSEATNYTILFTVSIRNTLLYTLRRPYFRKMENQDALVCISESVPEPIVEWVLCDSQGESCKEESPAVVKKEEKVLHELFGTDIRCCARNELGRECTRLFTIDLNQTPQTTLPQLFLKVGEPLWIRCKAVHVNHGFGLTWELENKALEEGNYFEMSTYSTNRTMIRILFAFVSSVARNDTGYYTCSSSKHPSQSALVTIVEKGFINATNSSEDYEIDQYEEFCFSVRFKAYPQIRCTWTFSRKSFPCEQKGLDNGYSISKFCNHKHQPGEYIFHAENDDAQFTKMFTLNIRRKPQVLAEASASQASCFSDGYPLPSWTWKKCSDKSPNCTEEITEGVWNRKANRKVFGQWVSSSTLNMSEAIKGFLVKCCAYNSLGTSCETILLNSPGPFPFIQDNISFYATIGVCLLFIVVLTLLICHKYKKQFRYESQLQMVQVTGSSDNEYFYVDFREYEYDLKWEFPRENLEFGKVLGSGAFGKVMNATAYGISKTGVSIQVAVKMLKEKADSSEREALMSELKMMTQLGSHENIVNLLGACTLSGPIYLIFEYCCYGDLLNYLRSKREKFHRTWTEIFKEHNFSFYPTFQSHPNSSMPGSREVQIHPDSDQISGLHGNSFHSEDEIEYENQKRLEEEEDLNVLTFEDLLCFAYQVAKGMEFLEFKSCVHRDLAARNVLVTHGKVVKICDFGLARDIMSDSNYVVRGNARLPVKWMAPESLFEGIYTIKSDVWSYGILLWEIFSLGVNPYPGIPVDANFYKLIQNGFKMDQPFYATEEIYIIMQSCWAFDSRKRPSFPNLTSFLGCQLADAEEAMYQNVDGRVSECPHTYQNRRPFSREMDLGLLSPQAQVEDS
Procedure: Compounds were screened for their ability to inhibit FLT-3 activity using a radiometric filter-binding assay. This assay monitors the ^33P incorporation into a substrate poly(Glu, Tyr) 4:1 (pE4Y). Reactions were carried out in a solution containing 100 mM HEPES (pH 7.5), 10 mM MgCl2, 25 mM NaCl, 1 mM DTT, 0.01% BSA and 2.5% DMSO. Final substrate concentrations in the assay were 90 μM ATP and 0.5 mg/mL pE4Y (both from Sigma Chemicals, St Louis, Mo.). The final concentration of compounds is generally between 0.01 and 5 μM. Typically, a 12-point titration was conducted by preparing serial dilutions from 10 mM DMSO stock of test compound. Reactions were carried out at room temperature.
Two assay solutions were prepared. Solution 1 contains 100 mM HEPES (pH 7.5), 10 mM MgCl2, 25 mM NaCl, 1 mg/ml pE4Y and 180 μM ATP (containing 0.3 μCi of [γ-^33P]ATP for each reaction). Solution 2 contains 100 mM HEPES (pH 7.5), 10 mM MgCl2, 25 mM NaCl, 2 mM DTT, 0.02% BSA and 3 nM FLT-3. The assay was run on a 96 well plate by mixing 50 μL each of Solution1 and 2.5 mL of the test compounds. The reaction was initiated with Solution2. After incubation for 20 minutes at room temperature, the reaction was stopped with 50 μL of 20% TCA containing 0.4 mM of ATP. All of the reaction volume was then transferred to a filter plate and washed with 5% TCA by a Harvester9600 from TOMTEC (Hamden, Conn.). The amount of ^33P incorporation into pE4y was analyzed by a Packard TopCount Microplate Scintillation Counter (Meriden, Conn.). The data was fitted using Prism software to get an IC50 or Ki.

[1] = given as IC50 or Ki, read-out: IC50 or Ki values (FLT-3)

Structure (SMILES): CC(=O)N1[C@H](C)CN(c2cc(-n3cnc(Nc4ccc(NC(=O)NC(C)(C)C)cc4)n3)ccn2)C[C@@H]1C [Compound I-101]
- Ki (CDK-2/Cyclin A): 500 to 1000 nM
- Ki (FLT-3; read-out: Ki values (FLT-3)): 30 to 200 nM

Structure (SMILES): CN1CCN(c2ccc(Nc3ncn(-c4ccccc4)n3)cn2)CC1 [Compound I-135]
- Ki (CDK-2/Cyclin A): > 1000 nM
- Ki (FLT-3; read-out: Ki values (FLT-3)): 30 to 200 nM

Structure (SMILES): CC(=O)N1[C@H](C)CN(c2cc(-n3cnc(Nc4ccc(NC(=O)N(C)C)cc4)n3)ccn2)C[C@@H]1C [Compound I-77, 3-(4-{1-[2-(4-Acetyl-3,5-dimethyl-piperazin-1-yl)-pyridin-4-yl]-1H-[1,2,4]triazol-3-ylamino}-phenyl)-1,1-dimethyl-urea]
- Ki (CDK-2/Cyclin A): > 1000 nM
- Ki (FLT-3; read-out: Ki values (FLT-3)): < 60 nM

Structure (SMILES): CCCOC(=O)Nc1ccc(Nc2ncn(-c3ccnc(N4C[C@@H](C)N(C(C)=O)[C@@H](C)C4)c3)n2)cc1 [Compound I-88]
- Ki (CDK-2/Cyclin A): < 500 nM
- Ki (FLT-3; read-out: Ki values (FLT-3)): 30 to 200 nM

Structure (SMILES): CCN(CC)CCNc1cc(-n2cnc(Nc3ccccc3)n2)ccn1 [Compound I-60]
- Ki (CDK-2/Cyclin A): > 1000 nM
- Ki (FLT-3; read-out: Ki values (FLT-3)): 30 to 200 nM

Structure (SMILES): CCOc1ccc(Nc2ncn(-c3ccccc3)n2)cc1 [Compound I-47]
- Ki (CDK-2/Cyclin A): > 1000 nM
- Ki (FLT-3; [1]): < 100 nM
- Ki (FLT-3; read-out: Ki values (FLT-3)): 30 to 200 nM

Structure (SMILES): CCNC(=O)Nc1ccc(Nc2ncn(-c3ccnc(N4C[C@@H](C)N(C(C)=O)[C@@H](C)C4)c3)n2)cc1 [Compound I-98, 1-(4-{1-[2-(4-Acetyl-3,5-dimethyl-piperazin-1-yl)-pyridin-4-yl]-1H-[1,2,4]triazol-3-ylamino}-phenyl)-3-ethyl-urea]
- Ki (CDK-2/Cyclin A): < 500 nM
- Ki (FLT-3; read-out: Ki values (FLT-3)): 1 to 30 nM

Structure (SMILES): COc1cc(Nc2ncn(-c3ccccc3)n2)cc(OC)c1OC [Compound I-42]
- Ki (CDK-2/Cyclin A): > 1000 nM
- Ki (FLT-3; [1]): < 100 nM
- Ki (FLT-3; read-out: Ki values (FLT-3)): 1 to 30 nM

Structure (SMILES): c1ccc(-n2cnc(Nc3ccnc(NCCN4CCOCC4)c3)n2)cc1 [Compound I-107]
- Ki (CDK-2/Cyclin A): > 1000 nM
- Ki (FLT-3; read-out: Ki values (FLT-3)): 30 to 200 nM

Structure (SMILES): CC(=O)N1[C@H](C)CN(c2cc(-n3cnc(Nc4ccc(N5CCN(S(=O)(=O)c6ccc(C)cc6)CC5)cc4)n3)ccn2)C[C@@H]1C [Compound I-92]
- Ki (CDK-2/Cyclin A): 500 to 1000 nM
- Ki (FLT-3; read-out: Ki values (FLT-3)): 30 to 200 nM

Structure (SMILES): CC(C)CCN(C)c1cc(-n2cnc(Nc3ccccc3)n2)ccn1 [Compound I-62, methyl-(3-methyl-butyl)-[4-(3-phenylamino-[1,2,4]triazol-1-yl)-pyridin-2-yl]-amine]
- Ki (CDK-2/Cyclin A): < 500 nM
- Ki (FLT-3; read-out: Ki values (FLT-3)): 1 to 30 nM

Structure (SMILES): COC(=O)Nc1ccc(Nc2ncn(-c3ccnc(N4C[C@@H](C)N(C(C)=O)[C@@H](C)C4)c3)n2)cc1 [Compound I-78]
- Ki (CDK-2/Cyclin A): < 500 nM
- Ki (FLT-3; read-out: Ki values (FLT-3)): < 60 nM

Structure (SMILES): CC(=O)N1[C@H](C)CN(c2cc(-n3cnc(Nc4ccc(NC(=O)C(F)(F)F)cc4)n3)ccn2)C[C@@H]1C [Compound I-79]
- Ki (CDK-2/Cyclin A): < 500 nM
- Ki (FLT-3; read-out: Ki values (FLT-3)): < 60 nM

Structure (SMILES): O=C(Cc1ccccc1)Nc1cc(-n2cnc(Nc3ccccc3)n2)ccn1 [Compound I-96]
- Ki (CDK-2/Cyclin A): < 500 nM
- Ki (FLT-3; read-out: Ki values (FLT-3)): 1 to 30 nM

Structure (SMILES): CC(=O)N1CCCN(c2cc(-n3cnc(Nc4ccccc4)n3)ccn2)CC1 [Compound I-66]
- Ki (CDK-2/Cyclin A): 500 to 1000 nM
- Ki (FLT-3; read-out: Ki values (FLT-3)): < 60 nM

Structure (SMILES): c1ccc(-n2cnc(Nc3ccc(N4CCOCC4)cc3)n2)cc1 [Compound I-106]
- Ki (CDK-2/Cyclin A): > 1000 nM
- Ki (FLT-3; read-out: Ki values (FLT-3)): 30 to 200 nM

Structure (SMILES): c1ccc(Nc2ncn(-c3ccnc(N4CCCCC4)c3)n2)cc1 [Compound I-49, phenyl-[1-(3,4,5,6-tetrahydro-2H-[1,2′]bipyridinyl-4′-yl)-1H-[1,2,4]triazol-3-yl]-amine]
- Ki (CDK-2/Cyclin A): < 500 nM
- Ki (FLT-3; read-out: Ki values (FLT-3)): < 60 nM

Structure (SMILES): CC(C)(C)CC(=O)Nc1cc(-n2cnc(Nc3ccccc3)n2)ccn1 [Compound I-102]
- Ki (CDK-2/Cyclin A): > 1000 nM
- Ki (FLT-3; read-out: Ki values (FLT-3)): 1 to 30 nM

Structure (SMILES): c1ccc(Nc2ncn(-c3ccnc(NC4CCCCC4)c3)n2)cc1 [Compound I-50]
- Ki (CDK-2/Cyclin A): < 500 nM
- Ki (FLT-3; read-out: Ki values (FLT-3)): 1 to 30 nM

Structure (SMILES): COCCN(C)c1cc(-n2cnc(Nc3ccccc3)n2)ccn1 [Compound I-59, (2-methoxy-ethyl)-methyl-[4-(3-phenylamino-[1,2,4]triazol-1-yl)-pyridin-2-yl]-amine]
- Ki (CDK-2/Cyclin A): < 500 nM
- Ki (FLT-3; read-out: Ki values (FLT-3)): 1 to 30 nM

Structure (SMILES): CN(CCO)c1cc(-n2cnc(Nc3ccccc3)n2)ccn1 [Compound I-51]
- Ki (CDK-2/Cyclin A): < 500 nM
- Ki (FLT-3; read-out: Ki values (FLT-3)): < 60 nM

Structure (SMILES): CCOC(=O)c1ccc(Nc2ncn(-c3ccnc(N4CCCN(C(C)=O)CC4)c3)n2)cc1 [Compound I-76]
- Ki (CDK-2/Cyclin A): > 1000 nM
- Ki (FLT-3; read-out: Ki values (FLT-3)): 30 to 200 nM

Structure (SMILES): O=C(C1CCCO1)N1CCN(c2cc(-n3cnc(Nc4ccccc4)n3)ccn2)CC1 (centres unmarked) [Compound I-64]
- Ki (CDK-2/Cyclin A): > 1000 nM
- Ki (FLT-3; read-out: Ki values (FLT-3)): > 200 nM

Structure (SMILES): CCC(=O)N1CCCN(c2cc(-n3cnc(Nc4ccccc4)n3)ccn2)CC1 [Compound I-67]
- Ki (CDK-2/Cyclin A): > 1000 nM
- Ki (FLT-3; read-out: Ki values (FLT-3)): 30 to 200 nM
